Data reported in patent publication US8232402B2, “Quinolinone farnesyl transferase inhibitors for the treatment of synucleinopathies and other indications” (Link Medicine Corporation, priority 2008, dated 2012).
Entries after “also recorded” stand apart in the source; their conditions may differ.

Tests used:
α-synuclein inclusions = assay: Inclusion histology in α-synuclein transgenic mice (α-synuclein and ubiquitin immunostaining, Campbell-Switzer); format: in vivo
Experimental: (§1) Farnesyl transferase inhibitors Zarnestra and OSI-754 were administered to mice of the α-synuclein transgenic line described in Masliah et al. (Masliah et al. “Dopaminergic loss and inclusion body formation in alpha-synuclein mice: implications for neurodegenerative disorders” Science 287(5456): 1265-69, 2000; incorporated herein by reference). Animals from this line have α-synuclein neuronal inclusions in the cortex, hippocampus, and the olfactory bulb (Masliah et al. “Dopaminergic loss and inclusion body formation in alpha-synuclein mice: implications for neurodegenerative disorders” Science 287(5456): 1265-69, 2000; incorporated herein by reference). Transgenic mice were orally administered either FTI in 20% cyclodextrin solution or the same volume of vehicle alone twice a day for 30 or 90 days. In some cases, non-transgenic mice also received vehicle twice a day for 30 to 90 days. At the end of treatment, mice were sacrificed, and the brains removed and hemisected. One hemisphere of each was fixed in 4% paraformaldehyde/PBS (pH 7.4), cryoperserved, then sectioned for histology. The other hemisphere was subdivided into four brain regions, including the cortex and hippocampus, that were homogenized and processed into cytoplasmic and membrane fractions.
Formation of α-synuclein inclusions in the cortex and hippocampus was probed by immunostaining with an antibody for human α-synuclein. Cells positive for human α-synuclein were quantified. […] These regions were also analyzed for ubiquitin-immunoreactive inclusions and by the Campbell Switzer method of silver staining. Ubiquitin is known to be a constituent of Lewy bodies and in the α-synculein inclusions found in the transgenic mouse line used in the study (Masliah et al. “Dopaminergic loss and inclusion body formation in alpha-synuclein mice: implications for neurodegenerative disorders” Science 287(5456): 1265-69, 2000; incorporated herein by reference). […] Campbell-Switzer staining is a general marker of Lewy Body type inclusions (Uchihara et al. “Silver stainings distinguish Lewy bodies and glial cytoplasmic inclusions: comparison between Gallyas-Braak and Campbell-Switzer methods” Acta Neuropathol (Berl) 110(3):255-60, 2005; incorporated herein by reference).
Formation of α-synuclein inclusions in the cortex and hippocampus was probed by immunostaining with an antibody for human α-synuclein. Cells positive for human α-synuclein were quantified.

α-synuclein = α-synuclein sandwich ELISA in brain fractions of α-synuclein transgenic mice; format: in vivo
Experimental: as §1
Total α-synuclein levels were analyzed by a sandwich ELISA assay similar to one previously described (El-Agnaf et al. “Detection of oligomeric forms of alpha-synuclein protein in human plasma as a potential biomarker for Parkinson's disease” FASEB J. 20(3):419-25, 2006; incorporated herein by reference). In the cortex of vehicle treated animals, α-synuclein protein levels in the α-synuclein transgenic line are greater than in non-transgenic mice in both cytoplasmic (FIG. 10) and membrane fractions (FIG. 11). Transgenic mice that received Zarnestra had lower α-synuclein protein levels than vehicle-treated transgenic mice and nearly the same as that detected in the non-transgenic group in both the cytoplasmic (FIG. 10) and membrane fractions (FIG. 11), which represent soluble and insoluble α-synuclein, respectively. Farnesylated UCH-L1 in the cortex is contained in the membrane fraction. The amount of UCH-L1 was determined by quantitative Western Blot.

farnesylated UCH-L1 = assay: Farnesylated UCH-L1 in cortex membrane fraction of α-synuclein transgenic mice (quantitative Western blot); format: in vivo; details: 35 mg/kg twice a day, 30 days
Experimental: Farnesyl transferase inhibitors Zarnestra and OSI-754 were administered to mice of the α-synuclein transgenic line described in Masliah et al. (Masliah et al. “Dopaminergic loss and inclusion body formation in alpha-synuclein mice: implications for neurodegenerative disorders” Science 287(5456): 1265-69, 2000; incorporated herein by reference). Animals from this line have α-synuclein neuronal inclusions in the cortex, hippocampus, and the olfactory bulb (Masliah et al. “Dopaminergic loss and inclusion body formation in alpha-synuclein mice: implications for neurodegenerative disorders” Science 287(5456): 1265-69, 2000; incorporated herein by reference). […]
Total α-synuclein levels were analyzed by a sandwich ELISA assay similar to one previously described (El-Agnaf et al. “Detection of oligomeric forms of alpha-synuclein protein in human plasma as a potential biomarker for Parkinson's disease” FASEB J. 20(3):419-25, 2006; incorporated herein by reference). […] Transgenic mice that received Zarnestra had lower α-synuclein protein levels than vehicle-treated transgenic mice and nearly the same as that detected in the non-transgenic group in both the cytoplasmic (FIG. 10) and membrane fractions (FIG. 11), which represent soluble and insoluble α-synuclein, respectively. […] The amount of UCH-L1 was determined by quantitative Western Blot. […]

[1] = tested on: α-synuclein in COS-7 cells; assay: α-synuclein degradation assay in COS-7 cells; format: cell-based
From the text: Plasmids: C220S cDNA was generated by PCR site-specific mutagenesis. For the PCR, the 5′ primer is uchforw SEQ ID NO: 1 ([…]), and 3′ primer is uchc220s SEQ ID NO:2 (CTAAGA […]). Wt UCH-L1 served as the template. The PCR fragment was inserted into pcDNA vector. For S 18YC220S mutant, S 18Y UCH-L1 served as the template in PCR. For the FLAG tagged UCH-L1, the 5′ primer is FLAGuchforw SEQ ID NO: 3 ([…] CGATGGAG), and the 3′ primer is uchrev SEQ ID NO: 4 ([…]). Wt UCH-L1 or C220S served as the template. PCR fragment was purified and inserted into pcDNA vector. For the FLAG tagged UCH-L3, the 5′ primer is L3HindIII SEQ ID NO: 5 (CTAAAGCTTATGGACTAC […]), the 3′ primer is L3XhoISAA SEQ ID NO: 6 ([…]). […] After 24 hours of incubation, the cells were lysed with Tris buffer (50 mM Tris, 2% SDS, 0.1% NP-40), and subjected to SDS-PAGE, followed by quantitative Western blotting.
The C220S mutation eliminated the ability of S118 to promote α-synuclein accumulation in COS-7 cells but had no effect on the S18Y polymorph (FIG. 2, panel C): the relative amount of 16 kDa α-synuclein was quantified and normalized against the amount of actin in transfected COS-7 cells with the presence of UCH-L1 variants. […]

UCH-L1 in SH-SY5Y cells = assay: UCH-L1 membrane association and level in SH-SY5Y cells (2D electrophoresis, Western blot); format: cell-based
Experimental: Membrane fractionation: Cells were harvested by scraping and washed with PBS. Cell pellet was suspended in lysis buffer (50 mM Tris-HCl, 1 mM EDTA) supplemented with protease inhibitor cocktail (Sigma) and homogenized by passing through 26G needles 10 times. Suspension was clarified by spinning at 600 g for 5 minutes. Clarified suspension was ultracentrifuged at 100,000 g for 2 hours and separated into membrane and cytosol. Membrane fraction was washed with washing buffer (50 mM Tris-HCl, 1 mM EDTA 1 M NaCl), and pelleted each time with bench-top centrifuge.
2D electrophoresis: For the isolation of total cellular protein, cultured SH-SY5Y cells maintained as described above were rinsed with ice-cold PBS. Cells were lysed in 1 ml dSDS buffer (50 mM Tris-HCl, pH 8.0 0.1% SDS) supplemented with protease inhibitor cocktail. Lysates were boiled for 3 min, and were treated with Dnase and Rnase as described. Lysates were precipitated with ice-cold acetone for at least 2 hours, and pellets were resuspended in 2D sample buffer (8M urea, 0.5% CHAPS, 0.2% DTT, 0.5% IPG buffer, 0.002% bromophenol blue). 2D electrophoresis was carried out according to manufacture's protocol (Amersham Life Science). 7 cm pH 4-7 strips were used. For SH-SY5Y membrane fraction, culture SH-SY5Y cells were rinsed with cold PBS and harvested with lysis buffer (50 mM Tris-HCl, pH 8.0, 1 mM ZnAc2, 250 mM sucrose). Lysate was passed through 25G needles for several times and spun at 1000 g for 5 min. Supernatant was centrifuged at 200,000 g for 2 hours. Pellet was extensively washed with lysis buffer and extracted with cold acetone. Pellet was resuspended in 2D sample buffer.
This species was presumably the fully processed species: farnesylated, truncated and C-terminally methylated.

[2] = tested on: SH-SY5Y cells overexpressing α-synuclein; assay: α-synuclein toxicity in SH-SY5Y cells infected with α-synuclein-expressing adenovirus (Trypan blue, MTT); format: cell-based
Experimental: Viral Infection: Viral infection and MTT assay in SH-SY5Y cells: The viruses were amplified and purified according to the published procedure. SH-SY5Y cells were grown on 100 mm petri-dishes and induced with 100 nM retinoic acid for 3-5 days before the virus infection with M.I.O at 75. Viruses were diluted with DPBS to desired M.I.O. After four hours of incubation, 10 ml growth medium was added. On the second day, cells were splitted into 96-well plates and treated with compounds for next 48 hours. The growth medium in each well was replaced with growth medium with 5 ug/ml MTT. Medium was removed after three hours incubation, and 200 ul isopropyl (0.04N HCl) was added into each well. The signal was read at 570 nm.
Viable cell counting: At stated time points, SH-SY5Y cells were trypsinized with 100 ul trypsin-EDTA for 1 minute and neutralized with 400 ul growth medium. Cell suspension was made up by mixing 0.2 ml of cells in growth medium, 0.3 ml of HBSS and 0.5 ml of 0.4% Trypan Blue solution. Viable cell numbers were counted by standard cell counting chamber.
Since α-synuclein neurotoxicity is dose-dependent, it follows that accumulation of α-synuclein, caused by UCH-L1 farnesylation, should promote its toxicity. […] These cells express high endogenous levels of UCH-L1. […] The unit of y-axis is 10^5/ml. (F) Cell viability was assessed by the amount of metabolic activity using MTT assay. […]

[3] = tested on: α-synuclein in SH-SY5Y cells; assay: α-synuclein accumulation in infected SH-SY5Y cells (Western blot); format: cell-based; details: SH-SY5Y cells infected with α-synuclein adenovirus, normalized to actin
Experimental: Western Blotting: Following transfer of SDS gels onto NC membrane, all membranes were blocked with 5% non-fat milk in TBST (50 mM Tris-HCl pH7.4, 150 mM NaCl, 0.1% Tween 20), and incubated with primary antibody overnight with 1% BSA in TBST, washed three times with TBST, and incubated with horseradish peroxidase-conjugated secondary antibody for 1 hour (Promega). Bound antibodies were detected using enhanced chemiluminascence (NEM).
Since α-synuclein neurotoxicity is dose-dependent, it follows that accumulation of α-synuclein, caused by UCH-L1 farnesylation, should promote its toxicity. […] These cells express high endogenous levels of UCH-L1. […] The unit of y-axis is 10^5/ml. (F) Cell viability was assessed by the amount of metabolic activity using MTT assay. […] The effect of FTI-277 on the α-synuclein accumulation in the SH-SY5Y infected with α-synuclein-expressing adenovirus were analyzed by Western blotting (B) and the amount of α-synuclein (C) was quantified using NIH Image program and normalized against the amount of actin.

[4] = tested on: primary dopaminergic cultures; assay: α-synuclein toxicity in primary dopaminergic cultures; format: cell-based
[5] = α-synuclein transgenic mice, summary, dose not given

## Cn1cncc1C(N)(c1ccc(Cl)cc1)c1ccc2c(c1)c(-c1cccc(Cl)c1)cc(=O)n2C (centres unmarked) [Zarnestra]
α-synuclein inclusions; 35 mg/kg twice a day, 30 days
  Campbell-Switzer stained inclusions versus vehicle: fewer inclusions
  ubiquitin-immunoreactive inclusions versus vehicle: fewer ubiquitin-immunoreactive inclusions
α-synuclein inclusions; 35 mg/kg twice a day, 30 days, oral
  inclusions versus vehicle: fewer inclusions
α-synuclein inclusions; cortex and hippocampus, 35 mg/kg twice a day, 30 days
  α-synuclein-positive cells per mm^2 versus vehicle: significantly fewer
α-synuclein inclusions; [5]
  inclusions versus vehicle: fewer inclusions
α-synuclein; cortex, cytoplasmic and membrane fractions, 35 mg/kg twice a day, 30 days
  levels of α-synuclein protein (ELISA): decreased levels of α-synuclein protein
α-synuclein; [5]
  levels of α-synuclein in the cortex: decrease levels of α-synuclein in the cortex
Farnesylated UCH-L1
  amount of farnesylated UCH-L1: decreased the amount of farnesylated UCH-L1

## CC(=O)N[C@@H](CSC(=O)[C@]1([C@@H](O)C(C)C)NC(=O)[C@H](C)[C@@H]1O)C(=O)O [lactacystin]
[1]; transfected COS-7 cells, 35 μM lactacystin, 24 hours
  accumulation of α-synuclein: 100%

## COC(=O)[C@H](CCSC)NC(=O)c1ccc(NC[C@@H](N)CS)cc1-c1ccccc1 [FTI-277]
UCH-L1 in SH-SY5Y cells
  total amount of UCH-L1: reduced the total amount of UCH-L1
UCH-L1 in SH-SY5Y cells; compared to DMSO
  amount of cytosolic UCH-L1: without affecting
  amount of membrane bound UCH-L1: significant decrease; also recorded: reducing the amount of membrane-associated protein
UCH-L1 in SH-SY5Y cells; pulse-chase
  rate of turnover of UCH-L1: increased its rate of turnover
[2]
  loss of cells (α-synuclein toxicity): inhibits synuclein toxicity; also recorded: significantly decreased loss of cells
[3]
  amount of α-synuclein: reduced the amount of α-synuclein
[1]; COS-7 cells
  α-synuclein levels: lowers α-synuclein levels
[4]
  α-synuclein toxicity: inhibit α-synuclein toxicity
